Measurements taken from patent publication US11040081B2 (CORPORATION GENACOL CANADA INC., priority 2016, dated 2021).

Legend:
[1] = system: patients diagnosed with osteoarthritis of the knee; test: Filipino study: WOMAC osteoarthritis index, Likert version; format: in vivo, human; settings: Likert 0-4
Protocol: Experimental, randomized, single blind observer, open-labeled, controlled trial. […] Group A subjects were given the oral collagen supplement (Genacol®, Blainville, Qc, Canada) 400 mg/capsule, 3 capsules daily at bedtime for 6 months, and a topical analgesic needed for knee pain. Group B, the control group, received the standard treatment using an oral non-steroidal inflammatory drug, in the form of aceclofenac 100 mg/tablet, 1 tablet twice a day for 5 days initially then as needed for pain, and topical analgesic (ketoprofen gel) to be applied twice a day as needed for pain. Both groups underwent physical therapy three times a week for two weeks. Heating modalities, range of motion exercises, and muscle strengthening exercises were administered on each therapy session. Follow up evaluation was done every month. On the sixth month of follow up, repeat radiography evaluation of the involved knee was done to determine if there were any changes in the knee joint. Compliance to the study medication was determined by asking the patient on their missed doses and by counting the remaining unconsumed capsules. Symptoms of osteoarthritis were assessed using the Western Ontario and McMaster Universities (WOMAC) osteoarthritis index, a validated and disease-specific questionnaire separately addressing severity of joint pain (5 questions), stiffness (2 questions), and limitation of physical function (17 questions) in the 48 hours before assessment. The Likert Version of WOMAC is rated on an ordinal scale of 0 to 4 with lower scores indicating lower levels of symptoms or physical disability. […] There is also an index score or global score, which is most commonly calculated by summating the scores for the 3 subscales. The questionnaire is self administered and takes 5 to 10 minutes to complete. Data was presented as mean±SD or frequency and percent distribution whichever was applicable. Chi square test was performed to indicate any significant difference in the distribution of male and female patients between the two groups while t-test was performed to check for any significant difference in characteristics that were continuous variables. Paired sample t-test was used to compare the significance in change in values (WOMAC and medial knee joint space) of the two groups from baseline to the sixth month follow up.

[2] = system: patients diagnosed with osteoarthritis of the knee; test: Filipino study: radiographic medial knee joint space width; format: in vivo, human; settings: weight-bearing anteroposterior radiograph
Protocol: Group A subjects were given the oral collagen supplement (Genacol®, Blainville, Qc, Canada) 400 mg/capsule, 3 capsules daily at bedtime for 6 months, and a topical analgesic needed for knee pain. Group B, the control group, received the standard treatment using an oral non-steroidal inflammatory drug, in the form of aceclofenac 100 mg/tablet, 1 tablet twice a day for 5 days initially then as needed for pain, and topical analgesic (ketoprofen gel) to be applied twice a day as needed for pain. Both groups underwent physical therapy three times a week for two weeks. Heating modalities, range of motion exercises, and muscle strengthening exercises were administered on each therapy session. Follow up evaluation was done every month. On the sixth month of follow up, repeat radiography evaluation of the involved knee was done to determine if there were any changes in the knee joint. Compliance to the study medication was determined by asking the patient on their missed doses and by counting the remaining unconsumed capsules. […] Using a standard ruler in millimeters, one experienced radiologist who was blinded as to the treatment of each subject measured the narrowest medial compartment of the tibiofemoral joint of each radiographed knee done at the start of the study. […]

O=C(O)COC(=O)Cc1ccccc1Nc1c(Cl)cccc1Cl [Group B, aceclofenac]
WOMAC Score, mean ([1]; 2nd ff-up (monthly follow-up)): 2.42 | WOMAC Score, mean ([1]; 3rd ff-up (monthly follow-up)): 2.29 | WOMAC Score, mean ([1]; 4th ff-up (monthly follow-up)): 2.26 | WOMAC Score, mean ([1]; 5th ff-up (monthly follow-up)): 2.17 | WOMAC Score, mean ([1]; 6th ff-up (sixth month)): 1.87 | WOMAC Score, mean ([1]; Baseline, Group A n=55, Group B n=58): 2.91 | Median Knee Joint Space, mean ([2]; 6th ff-up (sixth month)): 3.8 mm | Median Knee Joint Space, mean ([2]; Baseline): 4.3 mm
